Results reported in paper PMC2375353, “Effective treatment of experimental U-87MG human glioblastoma in nude mice with a targeted cytotoxic bombesin analogue, AN-215” (British Journal of Cancer, 2002).

How the values were obtained:
[1] = tested on: BN receptor-positive organs; assay: GRP-stimulated serum gastrin release; type: in vivo, nude mice; conditions: for Effect on GRP-stimulated gastrin release: experiment 1, after i.v. stimulation with GRP(14-27); for GRP(14-27)-evoked serum gastrin level: experiment 1 end, 5 min after i.v. 2 μg GRP(14-27), radioimmunoassay, control 223.0±17.9, mean±s.e.
Experimental: General toxicity was evaluated on the basis of mortality rate and changes in BW. Toxicity to BN receptor-positive organs was assessed by measuring gastrin release in response to GRP stimulation ([Plonowski et al, 2000]). […] Serum gastrin concentrations were measured by double-antibody radioimmunoassay with a kit provided by ICN Pharmaceuticals Diagnostic Division (Orangeburg, NY, USA). The interassay variation was 10.6%, and the intraassay variation was 6%.

hGRPR/BRS-1 = assay: RT-PCR of hGRPR/BRS-1 mRNA in U-87MG tumours; type: in vivo, human; conditions: experiment 1 tumours; normalised vs hGAPDH; control 15.1±1.5; change not significant
Experimental: Total RNA was extracted from frozen tissue samples by using RNAzolB (Tel-Test, Friendswood, TX, USA) according to the manufacturer's instructions. Concentrations of total RNA were calculated by measuring the OD260 value. Total RNA (4 μg) was subjected to electrophoresis for 2 h at 70 V in 10 μl of sample buffer containing 1× MOPS buffer (pH 6.5), 6.4% formaldehyde, 48% deionized formamide, 0.25% w v^−1 bromophenol blue, 0.05% glycerol and 0.25 mg ml^−1 ethidium bromide. The RNA gel contained 1.4% agarose, 1×MOPS (pH 6.5) and 1.73% formaldehyde.
The RT–PCR was performed using Gene Amp RNA Core Kit (Perkin-Elmer, Foster City, CA, USA). To avoid genomic DNA contamination, all samples were subjected to DNase digestion before RT–PCR. RNA (2 μg) was treated with 0.3 unit of RQ1 RNase-free DNase (Promega, Madison, WI, USA) at 37°C for 30 min in 19 μl of mixture containing 5 mM MgCl2, 1× PCR buffer, 1 mM of each dNTP, 1 unit RNase inhibitor and 2.5 μM random hexamers. The reaction was terminated by enzyme denaturation at 99°C for 5 min. […]
The PCR amplification of the cDNAs for human glyceraldehyde-3-phosphate dehydrogenase (hGAPDH), GRP receptor (hGRPR, BRS-1) and neuromedin-B receptor (hNMBR, BRS-2) was performed as follows. […] The number of cycles was determined in preliminary experiments to be within the exponential range of PCR amplification.

[2] = tested on: U-87MG human glioblastomas in nude mice; assay: Histology of U-87MG tumours (experiment 1); type: in vivo, human tumour in nude mice; conditions: for Extent of necrosis vs control / % area of necrosis / Ratio of apoptotic to mitotic indices / Apoptotic index / Mitotic index: experiment 1 tumours; for % area of necrosis: 150 nmol kg^-1 i.v. x4, control 60.0±5.8; for % area of necrosis / Ratio of apoptotic to mitotic indices / Apoptotic index / Mitotic index / Number of AgNORs per cell: mean±s.e.; for Ratio of apoptotic to mitotic indices: control 0.38±0.06; for Apoptotic index / Mitotic index: per 1000 cells; for Apoptotic index: control 5.9±0.7; for Mitotic index: control 16.6±1.4; for Number of AgNORs per cell: silver staining, 50 cells per tumour, control 4.93±0.18
Excerpt: Samples of tumour tissues were fixed in 10% buffered formalin. The specimens were embedded in Paraplast (Oxford Labware, St. Louis, MO, USA). Six μm thick sections were cut and stained with haematoxylin-eosin. Mitotic and apoptotic cells were counted in nine standard high power microscopic fields containing an average of 330 cells, and their numbers per 1000 cells were accepted as the mitotic and apoptotic indices, respectively. To eliminate errors caused by variances in thickness of slides and cellularity of areas investigated, the ratio of apoptotic to mitotic indices was calculated in each tumour. For the determination of the extent of necrosis in tumours, the crossing points of a microscope ocular net that coincided with necrosis in the slide made at the largest cross-section of each tumour were counted. The ratio of these points to the number of all points above the tumour represented the percentage area of necrosis. […] NORs are parts of DNA closely associated with nucleoli and encode for ribosomal RNA. They are also associated with argyrophylic proteins and thus can be visualised by silver staining. The amount of AgNORs is a good indicator of cell proliferation ([van Diest et al, 1998]). The silver-stained black dots in 50 cells of each tumour were counted and the AgNOR number per cell was calculated. The data were evaluated by one way analysis of variance (ANOVA) and the treated groups compared to the control by Dunnett's test.

[3] = General toxicity (mortality, body weight); type: in vivo, nude mice; conditions: for Final BW: mean±s.e.
Experimental: Experiment 1 was started when tumours had grown to approximately 40 mm^3 in volume. Animals were randomly divided into three treatment groups: group 1(10 mice), control, which received vehicle solution; group 2 (10 mice), injected with cytotoxic radical AN-201; group 3 (11 mice), given cytotoxic BN analogue AN-215. Cytotoxic compounds were injected through the jugular vein at a dose of 150 nmol kg^−1 of body weight (BW) on days 1, 8, 15 and 22. Tumour volume (length×width×height×0.5236) and BW were measured twice a week. The experiment was terminated on day 29. […] Tumours were excised and weighed. Tumour specimens were snap-frozen and stored at −70°C until extraction of RNA for reverse transcription-polymerase chain reaction (RT–PCR). Tumour volume doubling time was calculated between day 1 and 29 using the formula: […]
Experiment 2 was started when U-87MG tumours had grown to 70–84 mm^3 in volume. The animals were divided into the following treatment groups: group 1 (10 mice), control, vehicle solution; group 2 (10 mice), analogue AN-215; group 3 (five mice), unconjugated mixture of the cytotoxic radical AN-201 and BN antagonist RC-3095. All compounds were injected i.v. at 150 nmol kg^−1 of BW on days 1, 10, and 17. In addition, one group of tumour-bearing mice received an i.v. injection of 200 μg of BN antagonist RC-3095 15 min before each administration of AN-215 at a dose of 150 nmol kg^−1 of BW on days 1, 10 and 17 as in the case of group 2. The experiment was terminated on day 20 as described above.
General toxicity was evaluated on the basis of mortality rate and changes in BW. Toxicity to BN receptor-positive organs was assessed by measuring gastrin release in response to GRP stimulation ([Plonowski et al, 2000]). At the end of experiment 1, blood samples were collected 5 min after i.v. injection of 2 μg of GRP(14-27) dissolved in 100 μl of 5% mannitol. Serum gastrin concentrations were measured by double-antibody radioimmunoassay with a kit provided by ICN Pharmaceuticals Diagnostic Division (Orangeburg, NY, USA). The interassay variation was 10.6%, and the intraassay variation was 6%.

[4] = experiment 1, 150 nmol kg^-1 i.v. days 1, 8, 15, 22
[5] = experiment 1, 150 nmol kg^-1 i.v. days 1, 8, 15, 22, control 0/10
[6] = experiment 1, day 29, control 29.3±1.0

Molecule	Damage to gastrointestinal cells ([1]; GRP-stimulated gastric secretion, this study and also ref Plonowski et al, 2000)	Effect on GRP-stimulated gastrin release [1]	GRP(14-27)-evoked serum gastrin level [1] [pg/mL]	hGRPR/BRS-1 mRNA expression (hGRPR/BRS-1) [a.u.]	Extent of necrosis vs control [2]	% area of necrosis [2] [%]	Ratio of apoptotic to mitotic indices [2]	Apoptotic index [2]	Mitotic index [2]	Number of AgNORs per cell [2]	Toxicity by BW and mortality ([3]; both experiments, 150 nmol kg^-1 i.v.)	Mortality, % of animals [3, 4] [%]	Mortality (number of dead animals/number of total) [3, 5]	Final BW, % of control ([3]; experiment 1, day 29) [%]	Final BW [3, 6] [g]	Mortality (number of dead animals/number of total) ([3]; experiment 2, 150 nmol kg^-1 i.v. days 1, 10, 17, control 1/10)	Toxicity-related deaths ([3]; experiment 2, AN-215 150 nmol kg^-1 without pretreatment)	Mortality, % of animals, after RC-3095 pretreatment ([3]; experiment 2, RC-3095 200 μg i.v. about 15 min before AN-215) [%]	Final BW, % of control ([3]; experiment 2, day 20) [%]	Final BW ([3]; experiment 2, day 20, control 30.2±0.8) [g]
Gln-Trp-Ala-Val-Gly-His-Leu-ψ(CH2-NH)-Leu-NH2 [AN-215]	no specific damage to the gastrointestinal cells	Neither AN-215 nor AN-201 affected GRP-stimulated gastrin release	257.9 ± 11.6	25.4±5.1	significantly larger than in the controls	81.7±6.7	0.85±0.25	6.2±0.8	10.9±2.2	4.16±0.12	not toxic	9	1/11	87	25.4 ± 0.6	0/10	no toxicity-related deaths	11	90	27.3 ± 0.9
COc1cccc2c1C(=O)c1c(O)c3c(c(O)c1C2=O)C[C@@](O)(C(=O)CO)C[C@@H]3O[C@H]1C[C@H](N2C=CCC2)[C@H](O)[C@H](C)O1 [AN-201, 2-pyrrolino-doxorubicin]	–	Neither AN-215 nor AN-201 affected GRP-stimulated gastrin release	251.5 ± 22.1	21.6±3.4	only a slight and not significant change in necrosis	69.6±7.0	0.36±0.04	5.3±0.6	15.2±1.5	4.31±0.09	–	20	2/10	–	25.5 ± 0.8	–	–	–	–	–
